Source: patent US20240368178A1, “IMIDAZOCYCLIC COMPOUND AND APPLICATION THEREOF” (DONGBAO PURPLE STAR (HANGZHOU) BIOPHARMACEUTICAL CO., LTD., priority 2021, published 2024)

Tests used:
Human-GLP-1 receptor = Human-GLP-1 receptor (Homo sapiens (Human), UniProt P43220); assay: In vitro cell activity assay (cAMP, HEK293 GLP-1 cells); type: cell-based; settings: cAMP detection
Method: Experimental Example 1: In Vitro Cell Activity Assay
The host cell HEK293 for GLP-1 was constructed by WuXi AppTec (Shanghai) Co., Ltd.
cAMP Detection Kit, Cisbio (Cat #62AM4PEJ); 1M HEPES, Invitrogen (Cat #15630-106); 1×HBSS, Invitrogen (Cat #14025); BSA, Sigma (Cat #B2064); IBMX, Sigma (Cat #I5879); Exenatide, Hao Yuan (HY-13443A).
The compounds were prepared into a working solution with a concentration of 30 μM using DMSO. In this assay, each sample was used in an amount of 5 μL.
• 24.5 mL of Hanks Buffer Saline Solution (HBSS), final concentration: lx; • 125 μL of HEPES 1M, final concentration: 5 mM; • 333 μL of 7.5% BSA Solution, final concentration: 0.1%; • 25 μL of IBMX 500 mmol/L, final concentration: 0.5 mmol/L.
Preparation of cAMP assay reagent: 250 μL of cAMP-D2 and 250 μL of anti-cAMP cryptate reagent were added to 4 mL of lysis buffer and mixed gently.
The compound to be tested was diluted 3-fold at 10 points with a starting concentration of 30 μM, and the dilution was completed using Bravo.
Exenatide, used as a control compound, was diluted 3-fold at 10 points with a starting concentration of 500 nM, and the dilution was completed using Bravo. […]
• 1) A GLP-1 cell cryopreservation tube was rapidly thawed in a 37° C. water bath. • 2) The cell suspension was transferred to a 15 mL Transfer centrifuge tube and gently rinsed with 10 mL of HBSS. • 3) The centrifuge tube was centrifuged at 1000 rpm for 1 minute at room temperature. • 4) The supernatant was discarded. • 5) The cells at the bottom were gently dispersed, then rinsed with 10 mL of HBSS, centrifuged to sedimentation, and finally resuspended in the experimental buffer. • 6) The cell density and activity were measured using Vi-cell. • 7) The concentration of GLP-1 cells was diluted to 2.0*105/mL with the experimental buffer. • 8) […] of the diluted cell suspension was transferred to the OptiPlate-384 plate. • 9) The plate was incubated at room temperature for 30 minutes. […]
TopSeal-A was removed and the result was read in EnVision.

canine hepatocytes = assay: HMS CLint (liver) hepatocyte metabolic stability, dog; type: in vitro ADME
Method: (§1) Experimental purpose: to test the metabolic stability of the test sample in human and rat liver cells.
(§2) • (1) test compound (10 mM), reference substance: 7-ethoxycoumarin (30 mM), 7-hydroxycoumarin (reference substance, 30 mM); • mouse hepatocytes with cell viability of 73.8%, supplier Cat No.: BioreclamationlVTM005052; • rat hepatocytes with cell viability of 78.3%, supplier Cat No.: BioreclamationlVTM00005-T; • canine hepatocytes with cell viability of 80.2%, supplier Cat No.: BioreclamationlVTM00205; • monkey liver cells with cell viability of 80.9%, supplier Cat No.: RILD HP—SXH-02M; • human hepatocytes with cell viability of 94.6%, supplier Cat No.: Bioreclamation IVTX008001. • (2) Buffer system:
(§3) Thawing medium: Williams' medium E containing 5% fetal bovine serum, 30% Percoll solution, and other auxiliary materials.
(§4) Incubation medium: Williams' medium E (without phenol red) containing 2 mM L-glutamine and 25 mM 4-(2-hydroxyethyl)-1-piperazineethanesulfonic acid.
(§5) Termination solution: acetonitrile containing 200 ng/mL tolbutamide and labetalol as internal standard. […]
(§6) The residual rates of the test compound and the control compound were determined using the following formula: […]
(§7) The elimination rate constant (k) of the test compound and the control compound in hepatocytes was calculated by plotting the logarithm of the residual rate against time. […]

CYP2C19 = CYP2C19 (Homo sapiens (Human), UniProt P33261); assay: Time-dependent inhibition (TDI) of CYP2C19 in human liver microsomes; type: in vitro ADME
Method: The time-dependent inhibitory effect of the test compound on the activity of human liver microsomal cytochrome P450 isoenzyme CYP2C19 was determined.
The experiment was divided into two groups. In the first group, human liver microsomes (HLM) were used as the incubation system. The test articles with a series of concentrations were added to the incubation system, followed by the addition of a coenzyme factor (NADPH) solution. The preincubation was carried out at 37° C. for 30 minutes. After preincubation, a probe substrate solution was added thereto. After a certain period of incubation, the reaction was terminated. The amount of probe substrate metabolites generated in the incubation solution was determined, and the enzyme activity was calculated. In the second group, human liver microsomes (HLM) were used as the incubation system. The test articles with a series of concentrations were added to the incubation system, followed by the addition of potassium phosphate buffer. The preincubation was carried out at 37° C. for 30 minutes. After preincubation, a mixture of NADPH and the probe substrate was added thereto. After a certain period of incubation, the reaction was terminated. The amount of probe substrate metabolites generated in the incubation solution was determined, and the enzyme activity was calculated. […]
Then, 147.5 μL of human liver microsomal working solution was added to the reaction plate, and the reaction plate was placed on ice for use; at this time, 2.50 μL of the test compound (N=1) and the working solution (N=2) of the positive control inhibitor at various concentrations were added to the corresponding wells, and the corresponding organic solvent was added to the group without inhibitors (test compound or positive inhibitor); the reaction plate was incubated for 10 minutes at 37° C., and then 50.0 μL of NADPH solution or potassium phosphate buffer was added to reaction wells of the first or second group, respectively, to start the reaction; the reaction plate was pre-incubated at 37° C. for 30 minutes; 50.0 μL of the substrate solution or a mixture of NADPH and the substrate was added to the reaction wells of the first or second group, respectively, to start the reaction. 20 minutes later, 250 μL of precooled acetonitrile solution (containing internal standards of 200 ng/mL tolbutamide and labetalol) was added to terminate the reaction; the reaction plate was placed on a shaker and shaken for 10 minutes to mix uniformly; then, the plate was centrifuged for 20 minutes at 4° C. and 4000 rpm; 200 μL of the supernatant was added to 200 μL of water to dilute the sample; the plate was finally sealed and shaken for 10 minutes to mix uniformly; the sample was then analyzed by LC/MS/MS.

[1] = In vivo PK parameter testing in rats; design: species or system SD rat; settings: male SD rats
Method: (§8) Male SD rats and male cynomolgus monkeys were used as test animals, and the plasma concentration of the compound was determined and the pharmacokinetic behavior was evaluated after a single oral administration.
Two groups of healthy rats (fasted) were administered by intravenous injection (IV) and oral gavage (PO), each group with 2 rats. The vehicle was a mixture of 20% PEG400, 10% solutol, and 70% water. After mixing the compound to be tested with the vehicle, the mixture was vortexed and sonicated to prepare clear solutions of 0.2 mg/mL and 0.5 mg/mL. The intravenous injection dose for rats was 1.0 mg/kg, and the oral gavage dose was 5.0 mg/kg. After administration, the whole blood was collected at the time points of 0.083 hours, 0.25 hours, 0.5 hours, 1.0 hour, 2.0 hours, 4.0 hours, 8.0 hours, 12.0 hours, and 24.0 hours. Plasma was prepared from the whole blood and analyzed for drug concentration by LC-MS/MS.

monkey liver cells = assay: HMS CLint (liver) hepatocyte metabolic stability, cynomolgus monkey; type: in vitro ADME; settings: cynomolgus monkey hepatocytes
Method: as §1, §2, §3, §4, §5, §6, §7

human hepatocytes = assay: HMS CLint (liver) hepatocyte metabolic stability, human; type: in vitro ADME
Method: as §1, §2, §3, §4, §5, §6, §7

rat hepatocytes = assay: HMS CLint (liver) hepatocyte metabolic stability, rat; type: in vitro ADME
Method: as §1, §2, §3, §4, §5, §6, §7

[2] = In vivo PK parameter testing in cynomolgus monkeys; design: species or system cynomolgus monkey; settings: male cynomolgus monkeys
Method: as §8
Two groups of healthy male cynomolgus monkeys (fasted) were administered by intravenous injection and oral gavage, each group with 2 monkeys. The vehicle was a 20% hydroxypropyl-β-cyclodextrin aqueous solution. The compound to be tested 002 was mixed with the vehicle, then vortexed, and sonicated to prepare clear solutions of 1.0 mg/mL and 2.0 mg/mL. The intravenous injection dose was 1.0 mg/kg, and the oral gavage dose was 2.0 mg/kg. The compound to be tested 003 was mixed with the vehicle, then vortexed, and sonicated to prepare clear solutions of 0.25 mg/mL and 10.0 mg/mL. The intravenous injection dose was 0.5 mg/kg, and the oral gavage dose was 10.0 mg/kg. After administration, the whole blood was collected at the time points of 0.083 hours, 0.25 hours, 0.5 hours, 1.0 hour, 2.0 hours, 4.0 hours, 8.0 hours, 12.0 hours, and 24.0 hours. Plasma was prepared from the whole blood and analyzed for drug concentration by LC-MS/MS. Parameter meaning: Cmax is the maximum plasma concentration; AUC is the exposure; T1/2 is the half-life; Vd is the apparent volume of distribution; Cl is the clearance rate; F % is the oral bioavailability.

[3] = 30 min preincubation with NADPH
[4] = 30 min preincubation without NADPH

Chain of Human-GLP-1 receptor (P43220 24-463): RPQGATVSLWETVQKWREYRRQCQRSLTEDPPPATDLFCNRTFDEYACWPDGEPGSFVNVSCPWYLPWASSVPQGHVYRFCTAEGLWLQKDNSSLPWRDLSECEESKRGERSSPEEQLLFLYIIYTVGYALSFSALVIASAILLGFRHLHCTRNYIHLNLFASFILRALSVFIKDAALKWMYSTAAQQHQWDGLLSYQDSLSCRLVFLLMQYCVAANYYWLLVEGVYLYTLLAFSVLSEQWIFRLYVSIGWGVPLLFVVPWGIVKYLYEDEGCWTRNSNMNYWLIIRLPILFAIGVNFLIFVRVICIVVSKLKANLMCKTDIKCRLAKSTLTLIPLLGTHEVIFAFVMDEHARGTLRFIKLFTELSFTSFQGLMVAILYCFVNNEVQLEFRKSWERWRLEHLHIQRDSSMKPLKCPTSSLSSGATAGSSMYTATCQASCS
Chain of CYP2C19 (P33261 whole entry): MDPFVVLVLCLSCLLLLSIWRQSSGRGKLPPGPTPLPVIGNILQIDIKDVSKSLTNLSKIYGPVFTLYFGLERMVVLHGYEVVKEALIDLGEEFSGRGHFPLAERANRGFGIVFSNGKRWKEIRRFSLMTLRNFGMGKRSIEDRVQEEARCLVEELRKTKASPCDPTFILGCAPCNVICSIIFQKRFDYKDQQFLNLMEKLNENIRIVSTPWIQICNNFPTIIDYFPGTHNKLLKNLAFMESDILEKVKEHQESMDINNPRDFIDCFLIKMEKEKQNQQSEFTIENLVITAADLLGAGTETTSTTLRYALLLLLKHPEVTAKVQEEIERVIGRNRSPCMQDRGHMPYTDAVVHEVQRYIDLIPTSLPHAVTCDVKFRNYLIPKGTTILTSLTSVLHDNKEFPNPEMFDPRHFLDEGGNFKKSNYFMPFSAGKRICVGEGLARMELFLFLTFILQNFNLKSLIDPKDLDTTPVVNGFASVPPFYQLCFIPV

C[C@]1(c2ccc(Cl)cn2)Oc2cccc(C3CCN(Cc4nc5sc(C(=O)O)c(F)c5n4C[C@@H]4CCO4)CC3)c2O1 (single isomer, unassigned) [Compound 001]
EC50 (Human-GLP-1 receptor): 0.54 nM

C[C@]1(c2ccc(Cl)cn2)Oc2cccc(C3CCN(Cc4nc5sc(C(=O)O)cc5n4C[C@@H]4CCO4)CC3)c2O1 (single isomer, unassigned) [Compound 002]
HMS Dog (canine hepatocytes): 115.4 mL/min/kg | IC50 (CYP2C19; [3]): 29200 nM | IC50 (CYP2C19; [4]): > 50000 nM | EC50 (Human-GLP-1 receptor): 0.88 nM | F % ([1]; IV 1.0 mg/kg, PO 5.0 mg/kg): 27.1% | Cl ([1]; intravenous 1.0 mg/kg): 12.0 mL/min/kg | Vd ([1]; intravenous 1.0 mg/kg): 0.392 L/kg | AUC (PO) ([1]; oral gavage 5.0 mg/kg): 3.439 µM·h | T1/2 (PO) ([1]; oral gavage 5.0 mg/kg): 1.61 h | HMS Cynomolgus monkeys (monkey liver cells): <23.0 mL/min/kg | HMS Human (human hepatocytes): <17.8 mL/min/kg | HMS Rat (rat hepatocytes): 138.7 mL/min/kg | F % ([2]; IV 1.0 mg/kg, PO 2.0 mg/kg): 35.3% | Cl ([2]; intravenous 1.0 mg/kg): 0.505 mL/min/kg | Vd ([2]; intravenous 1.0 mg/kg): 0.155 L/kg | AUC (PO) ([2]; oral gavage 2.0 mg/kg): 42.966 µM·h | T1/2 (PO) ([2]; oral gavage 2.0 mg/kg): 11.3 h

C[C@@]1(c2ccc(Cl)cn2)Oc2cccc(N3CCN(Cc4nc5sc(C(=O)O)cc5n4C[C@H]4CCO4)CC3)c2O1 [Compound 003]
HMS Dog (canine hepatocytes): 58.7 mL/min/kg | IC50 (CYP2C19; [3]): > 50000 nM | IC50 (CYP2C19; [4]): > 50000 nM | EC50 (Human-GLP-1 receptor): 0.51 nM | HMS Cynomolgus monkeys (monkey liver cells): 41.6 mL/min/kg | HMS Human (human hepatocytes): 19.4 mL/min/kg | HMS Rat (rat hepatocytes): 5.1 mL/min/kg | F % ([2]; IV 0.5 mg/kg, PO 10.0 mg/kg): 23.6% | Cl ([2]; intravenous 0.5 mg/kg): 2.85 mL/min/kg | Vd ([2]; intravenous 0.5 mg/kg): 0.489 L/kg | AUC (PO) ([2]; oral gavage 10.0 mg/kg): 10.716 µM·h | T1/2 (PO) ([2]; oral gavage 10.0 mg/kg): 8.52 h
